Read-outs that look alike come from different tables or passages of the source.
Assays:
[1] = test system: human MOLT-4 acute lymphoblastic leukemia xenografts; assay: Growth of subcutaneously-implanted human MOLT-4 xenografts in SCID mice; format: in vivo, female SCID mice; conditions: for Effect on growth of SC-implanted MOLT-4 xenografts (primary tumor): treatment after establishment of tumor
Method: Mice were fed sterilizable rodent diet (Harlan-Teklad TD8656). Cages were changed twice weekly.
Thirty-to-forty milligram fragments of MOLT-4 human leukemia were implanted in mice near the right auxiliary area using a 12-gauge trocar needle and allowed to grow. The day of tumor fragment implantation was Day 0 of the experiment. Tumors were allowed to reach 75-144 mg in weight (75-144 mm3 in size) before the start of the treatments. A sufficient number of mice were implanted so that tumors in a weight range as narrow as possible were selected for the trial on the day of treatment initiation (Day 14 after tumor implantation). Those animals selected with tumors in the proper size range were randomized into treatment groups. The mean tumor weights on the first day of treatment were ranging from 84 or 96 mg; median tumor weights were 75 or 88 mg on Day 14.
Natalizumab (a 20-mg/mL solution, Gensia Sicor Pharmaceuticals Inc., Lot Nos. F23014 and G23004) and a diluent (Placebo for Tysabri®, Gensia Sicor Pharmaceuticals Inc., Lot No. F85002) were received from Biogen Idec Inc. and were stored at +2-8° C. upon receipt. Vials with a 0.97-mg/mL solution of human immunoglobulin (IgG4) were supplied by Sigma-Aldrich (St. Louis, Mo., Lot No. 122K9159) and were stored at −84° C. upon receipt. A clinical formulation of Taxol® (placlitaxel) (6.0 mg/mL in 50% cremophor-EL/50% ethanol, Bristol-Myers Squibb Company, Princeton, N.J.; Lot No. 2L57296) was purchased and refrigerated upon receipt. Saline (Saline Solution 0.9%, for animal use only) was purchased from Phoenix Pharmaceutical, Inc. (St. Joseph, Mo., Lot Nos. 262053F, 206205F, 208281F) and stored at room temperature. A new bottle of saline was used on each day of formulation.
On Day 14, a 20-mg/mL solution of natalizumab was diluted with Placebo for Tysabri® to 1.0 mg/mL. On subsequent injection days, a 0.5-mg/mL solution of natalizumab was formulated by diluting a 20-mg/mL stock solution with Placebo for Tysabri®. Care was taken not to shake the vials with natalizumab; the vials were inverted to mix. A new vial of natalizumab and Placebo for Tysabri® were used on each day of formulation. On Day 14, a supplied 0.97-mg/mL stock solution of IgG4 was thawed and injected into mice. On subsequent injection days, a 0.5-mg/mL solution of IgG4 was prepared by diluting a 0.97-mg/mL stock solution with Saline Solution 0.9%. A new vial with IgG4 was used on each day of formulation. An aliquot of a commercially formulated 6-mg/mL solution of Taxol® in 50% cremophor-EL/50% ethanol was diluted on each day of injection with Saline Solution 0.9% to make a 1.5-mg/mL solution in 12.5% cremophor-EL/12.5% ethanol/75% saline. All dosing solutions were injected within 2 to 3 hours of formulation.
Primary tumors of animals in Groups 5 and 6 were surgically excised on Day 28, one day after the median tumor weight in Group S reached 466 mg. Administration of anesthesia and surgery/post-surgery recovery procedures were conducted following approved standard laboratory methods. Briefly, each animal was anesthetized and the incision site was prepared with an antiseptic solution. An incision along the periphery of one side of the tumor (no more than 3-4 mm longer than the diameter of the tumor) was made, the skin was reflected and the tumor was everted through the incision. Tumor was dissected away from the skin and muscle. The incision was closed with a 4.0-mm wound clip. Each excised tumor was cut in half, with one half of the tumor frozen in O.C.T. compound and the second half of the tumor preserved in 10% buffered formalin. The site of the resection was monitored for tumor re-growth twice a week and when a new solid tumor was formed, its dimensions were recorded.
Animals No. 1-10 in Groups 1-4 were euthanized on Day 47 after tumor implantation (16 May 2003); Animals No. 11-20 in Groups 1-4 were euthanized on Day 48 (17 May 2003). […]

[2] = mouse, in vivo
Text: (§4) In-life experimental work commenced on Day 0 and was terminated on Day 80. Five-to-six-weeks-old, female SCID mice were purchased from Taconic Farms, Inc. (Germantown, N.Y.) and acclimated in the laboratories one week prior to experimentation. The animals were housed in a pathogen-free barrier facility in micro-isolator cages, with five animals per cage in a 12-hour light/dark cycle. The animals received filtered Birmingham municipal water and sterile rodent food ad libitum. Mice were fed sterilizable rodent diet (Harlan-Teklad TD8656). Cages were changed twice weekly. The animals were observed daily and clinical signs were noted.
(§5) Animals were randomly divided into six groups of 20 animals each and one group of 30 animals. Two groups (Groups 1 and 5) were treated with Saline Solution 0.9% (saline). Animals in Groups 2, 6, and 7 were treated with natalizumab. Animals in Group 3 were treated with IgG4 (isotype control). Animals in Group 4 were treated with Taxol® (positive control). Treatments with saline, natalizumab, and IgG4 (Groups 1, 2, 3, 5, and 6) were administered IP on Days 14, 17, 21, 24, 28, 31, 35, 38, 42, and 45 (Q3D×2 for five weeks, Friday-Monday schedule). Treatment with natalizumab in Group 7 (a group of 30 mice) was administered on Days 14, 17, 21, 24, 28, 31, 35, and 38 (Q3D×2 for four weeks). On Day 14 natalizumab was administered at a dosage of 10 mg/kg, followed by further treatments with a dosage of 5 mg/kg/dose. […]
(§6) The animals were weighed and the subcutaneous (SC) tumors were measured on the days when treatments were administered starting on Day 14 with an exception of two measurements which were done one day before the injection (on Days 24 and 41). […]
(§7) The number of non-specific deaths, number of partial and complete tumor regressions, number of tumor-free survivors, and the individual animal's time to reach the evaluation size (time to reach four tumor mass doublings) were determined. […] Mean body weights and standard deviations were calculated for each group on each day of data collection (values are presented in Tables 8-9 through 8-15).

[3] = test system: human acute lymphoblastic leukemia xenografts; assay: Necropsy and histopathologic evaluation of xenograft-bearing SCID mice; set-up: species or system female SCID mice; conditions: mouse, in vivo
Method: Animals No. 1-10 in Groups 1-4 were euthanized on Day 47 after tumor implantation (16 May 2003); Animals No. 11-20 in Groups 1-4 were euthanized on Day 48 (17 May 2003). All surviving animals in Groups 5 and 6 (except for Animal No. 12 in Group 5 and Animal No. 8 in Group 6, for explanations see below) were euthanized on Day 80 after tumor implantation […]. Animal No. 12 in Group 5 was sacrificed on Day 73 due to excessive tumor weight (>4,000 mg). Animal No. 8 in Group 6 was sacrificed on Day 73 due to tumor ulceration. Five animals in Group 7 were euthanized on Days 14, 21, 28, 35, and ten animals were euthanized on Day 38. Carcasses of all animals alive on Days 47, 48, and 80 were submitted to the Safety Assessment Department of Southern Research Institute for necropsy followed by complete histopathological evaluation. Animals in Group 7 were excluded from necropsy and complete histopathological evaluation. For the animals in Groups 1-6, tumor implantation (subcutaneous) took place on Day 0. Treatment was initiated on Day 14, and treatment was terminated on Day 45. Primary tumor excision occurred on Day 28 post-implantation in Groups 5 and 6. The animals were sacrificed on Day 80. Animals in the non-excision group were sacrificed at days 47-48.
Each tumor weighing more than 100 mg was cut in half and one half of the each tumor was frozen in O.C.T. compound using a dry ice/ethanol slush, and stored at −84° C. Tumors weighing less than 100 mg (tumors of Animals No. 1, 3, 7, 9, 11, 12, 14-18, and 20 in Group 4) were frozen in O.C.T. compound in toto. Tumor of Animals No. 2, 4, 5, 6, 8, 13, and 19 in Group 4, which weighed less than 100 mg, were preserved in 10% buffered formalin in toto. After the completion of the experiment all tumor samples frozen in O.C.T. compound (a total of 145 tumor samples) were shipped to Sierra Biomedical, Division of Charles River Laboratories, to be examined by immunohistochemistry to verify that MOLT-4 was expressing VLA-4 in vivo and thus was a valid tumor model for this study. […]

MOLT-4 cell line = assay: 3H-thymidine incorporation (tritiated thymidine uptake) proliferation assay, MOLT-4; format: cell-based, human; conditions: 1, 2, 3, 4 and 5 days of exposure, eight concentrations (0.001-100 mg/mL)
Method: (§1) In order to assess the potential of natalizumab to induce or inhibit proliferation of transformed cells and clonal expansion possibly leading to neoplasia, experiments were performed to determine the ability of natalizumab to stimulate growth of malignant cells expressing the receptor in vitro, and studies were conducted in animal tumor models.
(§2) The evaluation of positive or negative effects on proliferation of the tumor cell lines was performed using 3H-thymidine incorporation assays. Evaluation of the inhibition or potentiation of human tumor cell growth and/or metastasis was determined using a tumor xenograft nude/SCID mouse model. Thirty-two tumor cell lines were screened. Of the thirty-two tumor cell lines, twelve were colorectal carcinoma, colorectal adenocarcinoma, colon adenocarcinoma, or colon carcinoma cell lines; seven were melanomas or amelanotic melanomas; six were urinary bladder transitional cell carcinomas or urinary bladder carcinomas; three were leukemias; two were lymphomas; and two were prostate carcinomas.
(§3) An adhesion assay for VCAM-1 binding was also performed. Seven of the eleven cell lines evaluated were positive. […] AS283, HT-29, MOLT-4, and UM-UC-3 cell lines were treated with Tysabri® (natalizumab). Tritiated thymidine uptake was measured.

[4] = test system: tumor cell lines (nine evaluated); assay: Preliminary cell proliferation assay on nine tumor cell lines; format: cell-based; conditions: all nine of the nine cell lines evaluated
Method: as §2, §3

AS283 cell line = assay: 3H-thymidine incorporation (tritiated thymidine uptake) proliferation assay, AS283; format: cell-based; conditions: 1, 2, 3, 4 and 5 days of exposure, eight concentrations (0.001-100 mg/mL)
Method: as §1, §2, §3

HT-29 cell line = assay: 3H-thymidine incorporation (tritiated thymidine uptake) proliferation assay, HT-29; format: cell-based; conditions: 1, 2, 3, 4 and 5 days of exposure, eight concentrations (0.001-100 mg/mL)
Method: as §1, §2, §3

UM-UC-3 cell line = assay: 3H-thymidine incorporation (tritiated thymidine uptake) proliferation assay, UM-UC-3; format: cell-based; conditions: 1, 2, 3, 4 and 5 days of exposure, eight concentrations (0.001-100 mg/mL)
Method: as §1, §2, §3

[5] = Tolerability (deaths, body weight) in MOLT-4 xenograft-bearing SCID mice
Text: as §4, §5, §6, §7

[6] = test system: human MOLT-4 acute lymphoblastic leukemia xenografts; assay: Growth of subcutaneously-implanted human MOLT-4 xenografts in SCID mice; format: in vivo, female SCID mice; conditions: treatment initiated Day -7

## CC(=O)O[C@H]1C(=O)[C@@]2(C)[C@H]([C@H](OC(=O)c3ccccc3)[C@]3(O)C[C@H](OC(=O)[C@H](O)[C@@H](NC(=O)c4ccccc4)c4ccccc4)C(C)=C1C3(C)C)[C@]1(OC(C)=O)CO[C@@H]1C[C@@H]2O [Taxol, placlitaxel, reference compound]
[1]; no excision (Group 4)
  Measurable tumors that doubled their mass once over the course of the experiment: three out of eight
[1]; no excision, 15 mg/kg/dose IV Q1Dx5 from Day 14
  Animals with no measurable tumor at termination of the experiment: Twelve out of twenty
[1]; no excision
  Effect on growth of SC-implanted MOLT-4 xenografts (primary tumor): very effective in the inhibition
[2]
  Tolerability of administration: well tolerated without deaths or sustained body weight loss
[3]
  Gross and microscopic lesions, relation to treatment: spontaneous or incidental and unrelated

## natalizumab: a humanized antibody against VLA-4 as described in U.S. Pat. Nos. 5,840,299 and 6,033,665
MOLT-4 cell line
  Tritiated thymidine uptake: cytotoxic or proliferative effect: no evidence of a cytotoxic or proliferative effect
[1]; Day 47, treatment started Day 14 on established tumor, no excision (Groups 2-4)
  Median tumor weight: 1240 mg
[1]; Day 80, primary tumor excised Day 28 (Group 6)
  Median tumor weight (re-grown tumor): 1006 mg
[1]; Group 6, Day 80
  Animals staying tumor-free on day of study termination: two
[1]; Group 6, excision Day 28
  Animals whose tumor re-grew at the site of the primary tumor following excision: seventeen out of nineteen
[1]; Group 6 vs Group 5, excision Day 28
  Effect on re-growth of tumor at the site of excision of the primary tumor: re-grew at a slower rate
[1]; no excision (Groups 2 and 3)
  Tumors growing / animals with tumor at termination of the experiment: All twenty tumors grew
[1]; primary tumor excised Day 28 (Group 6), not reached
  Time for median tumor to reach four tumor mass doublings: > 66.0 days
[1]; no excision
  Effect on growth of SC-implanted MOLT-4 xenografts (primary tumor): not inhibited
[1]; treatment started Day 14 on established tumor, no excision (Groups 2-4)
  Time for median tumor to reach four tumor mass doublings: 33.5 days
[4]
  Preliminary cell proliferation assay: cytotoxic or proliferative effect: no cytotoxic or proliferative effect
AS283 cell line
  Tritiated thymidine uptake: cytotoxic or proliferative effect: no evidence of a cytotoxic or proliferative effect
HT-29 cell line
  Tritiated thymidine uptake: cytotoxic or proliferative effect: no evidence of a cytotoxic or proliferative effect
UM-UC-3 cell line
  Tritiated thymidine uptake: cytotoxic or proliferative effect: no evidence of a cytotoxic or proliferative effect
[5]; mouse, in vivo
  Effect on animal health (body weights over the treatment period): did not adversely affect animal health
[5]; non-excision groups, natalizumab and IgG4 IP Days 14-45, Taxol IV Q1Dx5
  Tolerability of administration: well tolerated without deaths
[3]
  Exacerbation of growth or metastasis of the xenografts (histopathology): no evidence of exacerbation of growth or metastasis
  Gross and microscopic lesions, relation to treatment: spontaneous or incidental and unrelated
[6]
  Effect on tumor growth, treatment initiated prior to tumor implantation: significant decrease in tumor growth

— patent publication US20050255118A1, “Methods and composition for treating tumors and metastatic disease” (priority 2004, published 2005)
